Source: US9555061B2, “Synthesis and analysis of compounds capable of inducing differentiation of human mesenchymal stems cells into hepatocytes” (National University Corporation Torrori University, priority 2011, dated 2017)

Key:
Assay type in all cases: cell-based, human
[1] = system: Wnt/β-catenin signaling pathway; experiment: Ability of inhibiting Wnt/β-catenin pathway, luciferase assay (UE7T-13); settings: 8 days after the treatment; pTCF4-CMV-luciferase reporter
Description: FIG. 3 is a schematic diagram illustrating how to establish a human mesenchymal stem cell stably expressing a β-catenin/TCF4/luciferase reporter gene. FIG. 3 illustrates how to construct pTCF4-CMVpro-GL4.20 plasmid by using a luciferase expression vector. The pTCF4-CMVpro-GL4.20 plasmid contains three TCF4 sequences […] upstream of a CMV promoter to express luciferase. In addition, pCMVpro-GL4.20 plasmid was constructed as a control. The resulting plasmids were each linearized, introduced into UE7T-13 by electroporation, and selected using puromycin (0.25 μg/ml) supplemented in a medium. Puromycin-resistant cells were cloned and used for a luciferase assay.
The cell line having a vector stably expressing luciferase was seeded on a 24-well plate, and was cultured at 37° C. At the next day, the medium was changed to a medium containing IC-2, etc., and the cell line was further cultured at 37° C. After that, at days 1, 4, and 8, a luciferase assay system (Promega) was used and the luciferase activity was read with a fluorescence plate reader (ARVO) at a wavelength of 556 nm.

[2] = system: UE7T-13 cells; experiment: Hepatocyte differentiation induction, RT-PCR of albumin (UE7T-13); settings: 15 μM
Description: After 24 h, the medium was changed to a medium containing IC-2, etc. After that, the medium was changed twice a week, and the cells were subcultured once a week to adjust a cell number at 9.0×10^3 cells/cm^2. Total RNA was collected at days 8, 16, and 24 after the initiation of the induction.
Total RNA was extracted with a TRIzol reagent. After the extraction, in order to completely remove DNA, deoxyribonuclease was added and the mixture was incubated at 37° C. for 1 h. A SuperScript First-Stand Synthesis System for RT-PCR (Invitrogen) was used for reverse transcription, and an oligo dT primer was used to convert 1 μg of RNA into cDNA. To perform a PCR, the cDNA was diluted by 5 times and 1 μl of the cDNA was used. A recombinant Taq DNA polymerase (Invitrogen) was used for the PCR. With regard to primers for human albumin, 5′-[…]-3′ (SEQ ID NO: 1) and 5′-[…]-3′ (SEQ ID NO: 2) were used. The PCR involved 1 cycle of 95° C. for 2 min and 35 cycles of 95° C. for 30 sec, 58° C. for 30 sec, and 72° C. for 30 sec. Human glyceraldehyde 3-phosphate dehydrogenase (GAPDH) was used as an internal control. With regard to GAPDH primers, 5′-[…]-3′ (SEQ ID NO: 3) and 5′-[…]-3′ (SEQ ID NO: 4) were used. The PCR involved 1 cycle of 95° C. for 2 min and 20 cycles of 95° C. for 30 sec, 60° C. for 30 sec, and 72° C. for 30 sec. […]

[3] = system: UE7T-13 cells; experiment: RT-PCR of genes encoding liver-specific secretory proteins and cytokines (UE7T-13); settings: hexachlorophene 0.8 μM or IC-2 15 μM; days 8, 16, 24
Description: Bone marrow-derived mesenchymal stem cells (UE7T-13 cells) were treated with a compound, hexachlorophene (H4625-25G; Sigma-Aldrich, Inc.) or IC-2. At that time, gene expression of each of liver-specific secretory proteins and cytokines was evaluated. […] This time point was set to day 0.
At the next day corresponding to day 1, the medium was changed to DMEM containing hexachlorophene at a final concentration of 0.8 μM or IC-2 at a final concentration of 15 μM. […] After that, the medium was replaced twice during 8 days, and the cells were subcultured every 8 days. Then, the similar operation was carried out until day 24. At days 8, 16, and 24 after the initiation of the induction, TRIzol (Invitrogen) was used to extract total RNA according to the attached instruction. After the extraction, deoxyribonuclease (Nippon Gene) was added, and the mixture was incubated at 37° C. for 30 min to remove DNA. In a reverse transcription reaction, SuperScriptII Reverse Transcriptase (Invitrogen) and Oligo(dT)15 primer were added to 1 μg of RNA to convert it into cDNA. In a RT-PCR method, the cDNA was diluted by 5 times. Next, 1 μl of the cDNA was used as a template. Then, rTaq DNA polymerase (TOYOBO) was used to amplify the cDNA. MQ water was used as a negative control. cDNA from Huh-7 or UE7T-13 cells was used as a positive control. […]

Substance: (6S,9aS)-6-phenyl-8-naphthalen-1-ylmethyl-4,7-dioxo-hexahydro-pyrazino[1,2-a]pyrimidine-1-carbocylic acid benzylamide [IC-2]
- concentration that significantly inhibited the Wnt/β-catenin signaling pathway [1]: ≥ 15 µM
- levels of the albumin expression [2]: particularly high
- expression of a plurality of the liver-specific secretory proteins and cytokines [3]: increased levels of expression
